Reference: patent publication US12391659B2, “Benzothiazole and related compounds” (Spinogenix, Inc., priority 2017, dated 2025)

System: primary mouse cortical neurons
Assay: In vitro spinogenesis: synaptophysin (P38) puncta / synapse count in primary mouse cortical neurons
Format: cell-based
Conditions: for number of synaptic puncta (P38-immunopositive) compared to the vehicle control: 5 μM, 24 hours of treatment starting at DIV 15, DIV 16 neurons; for increase in the number of synapses compared to the control: 1 μM, 24 hrs of treatment starting at DIV 15, DIV 16 neurons
Text: Compounds of the current invention bind to the actin bundling protein, fascin, and prevent the formation of long, stiff actin cytoskeleton, thereby promoting dendritic spine formation. (see, Sedeh, R. S. et al. J. Mol. Biol. 400, 589-604 (2010); Chen, L. et al. Nature 464, 1062-1066 (2010); Jansen, S. et al. J. Biol. Chem. 286, 30087-30096 (2011); Yang, S. et al. J. Biol. Chem. 288, 274-284 (2013); Zheng, S. et al. J. Med. Chem. 57, 6653-6667 (2014)). […] Specifically, the Benzothiazole-IIIA and Benzothiazole-IIIB compounds of the instant invention, as well as the Benzothiazole-I compound as described in International application number PCT/US2017/012139, were used in this study (FIG. 1).
Primary mouse cortical neurons were treated with 5 μM of Benzothiazole-I, Benzothiazole-IIIA, or Benzothiazole-IIIB at DIV 15. As a control, primary mouse cortical neurons were treated with the vehicle only (10% DMSO, 90% phosphate buffered saline (PBS)). After 24 hours, the DIV 16 neurons were fixed, immunostained using the presynaptic vesicle protein synaptophysin (P38), counterstained with the nuclear dye DAPI (4′,6-diamidino-2-phenylindole,), and counted. Immunolabeled neurons were imaged on a Leica confocal microscope. The numbers of P38-immunopositive puncta were analyzed using FIJI with the Squash plugin (FIG. 2).
In a similar experiment, the primary mouse cortical neurons were treated with 1 μM of Benzothiazole-I or Benzothiazole-IIIB at DIV 15, using the same DMSO/PBS buffer solution described above as the control vehicle. After 24 hours, the DIV 16 neurons were fixed, immunolabeled with synaptophysin, stained with DAPI, and counted as described above.

| Structure (SMILES) | number of synaptic puncta (P38-immunopositive) compared to the vehicle control | increase in the number of synapses compared to the control |
| --- | --- | --- |
| OCCOCCOCCOCCOCCOCCOc1ccc(-c2nc3ccccc3s2)cc1 [Benzothiazole-IIIA] | increase |  |
| OCCOCCOCCOCCOc1ccc(-c2nc3ccccc3s2)cc1 [Benzothiazole-IIIB, 2-(2-(2-(2-(4-(benzo[d]thiazol-2-yl)phenoxy)ethoxy)ethoxy)ethoxy)ethan-1-ol] | increase | ~100% |
| Cc1ccc2nc(-c3ccc(NCCOCCOCCOCCO)cc3)sc2c1 [Benzothiazole-I, ((4-(6-methylbenzo[d]thiazol-2-yl)phenyl)amino)-(CH2CH2O)4H, reference compound] | increase | ~100% |
